Like-named read-outs stand apart in the source and are kept apart here.
Key:
[1] = Pharmacokinetics and tissue distribution after bolus IV, IP, SC and PO administration in mice; assay type: in vivo, female Crl: CD1 mice
Method: The compound of formula I was dissolved in ethanol (5%), Polysorbate 80 (15%), PEG 400 (5%) and dextrose (5%) at a final concentration of 6 mg/ml (IV, IP and SC administration). For oral administration, the compound of Formula I was solubilized in Chremophor® EL/ Ethanol (50%:50%) at a final concentration of 6 mg/ml. Prior to dosing, animals (female Crl: CD1 mice; 6 weeks of age, 22-24g) were weighed, randomly selected and assigned to the different treatment groups. The compound of Formula I was administered by the bolus intravenous (IV), bolus subcutaneous (SC), bolus intraperitoneal (IP), or oral (PO) route to the assigned animals. The dosing volume of Formula I was 5 mL per kg body weight. Animals were anesthetized prior to bleeding with 5% isoflurane. Blood was collected into microtainer tubes containing the anticoagulant K2EDTA by cardiac puncture from each of 4 animals per bleeding timepoint (2min, 5 min, 15 min, 30 min, 1 h, 2h, 4h and 8h). Following collection, the samples were centrifuged and the plasma obtained from each sample was recovered and stored frozen (at approximately - 80°C) pending analysis. At the 5 min and 30 min time points, the following organs were harvested from each animal: brain, lungs, skeletal muscle, fat tissue, kidneys, spleen, thymus and liver. Tissues were frozen (at approximately -80°C) pending analysis. Samples were analysed by LC/MS/MS.
Plasma values of the compound of Formula I falling below the limit of quantitation (LOQ) were set to zero. […] The following pharmacokinetic parameters were calculated: area under the plasma concentration versus time curve from time zero to the last measurable concentration time point (AUCO-t), area under the plasma concentration versus time curve extrapolated to infinity (AUCinf), maximum observed plasma concentration (Cmax), time of maximum plasma concentration (tmax), apparent first-order terminal elimination rate constant (kel), apparent first-order terminal elimination half-life will be calculated as 0.693/kel (t1/2). The systemic clearance (CL) of the compound of Formula I after intravenous administration was calculated using Dose/AUCinf. Pharmacokinetic parameters were calculated using Kinetica™ 4.1.1 (InnaPhase Corporation, Philadelphia, PA).

[2] = system: human prostate tumor (PC3) xenografts; assay: Human PC3 prostate tumor xenograft efficacy; assay type: in vivo, HRLN male nude mice; conditions: for %T/C: day 38, P< 0.0001
Method: The anticancer activity of the compound of Formula I was further tested in a human PC3 prostate model in mice. HRLN male nude mice (8 weeks of age) were implanted with 1 mm^3 PC3 tumor fragments subcutaneously (SC) in the right flank. Animals were randomized (ten per group) when tumors reach an average size of 80 - 120 mg and treatment began according to the table below. For these studies, the compound of Formula I was formulated in 5% ethanol, 5% PEG-400, 15% Polysorbate 80, and 75% of water containing 5% dextrose.
Tumor measurements were taken twice weekly using callipers and were converted to tumor mass (in milligrams) using the formula: with^2 (mm) x length (mm) x 0.52. Body weights were also recorded twice weekly. Statistical analysis was done using the unpaired two-tailed Student's t test.

[3] = Toxicity of 14-day continuous intravenous infusion in monkeys; assay type: in vivo
Method: Cynomolgus monkeys received continuous IV infusion over 14 days of Formula I at 5 mg/kg/day, 15 mg/kg/day, or 30 mg/kg/day. The drug was infused intravenously (24 hours/day) into the femoral vein at a dose rate of 2 ml/kg/hour for 14 consecutive days. Blood samples were removed from each monkey on Days 1, 2, 6, 10, and 15 of the treatment period. Monkeys were bled by venipuncture and samples were collected into tubes containing K2EDTA. On Day 1, samples were collected at 2, 6, and 12 hours after initiation of treatment. Additional samples were collected at 30 hours after the start of infusion (Day 2). On Days 6 and 10, samples were collected at approximately 6 hours after the bag changes. At the end of the 14 days of infusion, on Day 15, samples were collected at 1 hour prior to cessation of dose administration, and at 5 min, 30 min, 1 h, 2 h, 4 h, 8 h, and 24 h following cessation of dose administration.

[4] = Population pharmacokinetic analysis (NONMEM), mouse; assay type: in vivo; conditions: Mouse (IV)
Method: An analysis was performed to derive allometric equations for Formula I pharmacokinetic parameters using Formula I plasma concentration-time data from three species, including mouse, rat, and monkey, and to estimate human pharmacokinetic parameters from those allometric equations.
Plasma concentrations of Formula I were obtained from mice, rats, and monkeys following intravenous injection or continuous infusion. Formula I pharmacokinetic parameters in mice, rats, and monkeys were estimated using population pharmacokinetic analysis, a function of the software program NONMEM™ (version 5). Typical population pharmacokinetic parameters for Formula I in humans were extrapolated from allometric equations that were derived from pharmacokinetic parameters estimated in the three animal species.
A two-compartment model with a first-order elimination from the central compartment adequately described Formula I plasma concentration-time profiles following intravenous bolus injection (30 mg/kg) in mice and rats, 7-day continuous infusion in rats (50 to 170 mg/kg/day), and 14-day continuous infusion in monkeys (5 to 30 mg/kg/day).

[5] = typical population PK parameter

With CC(C)=CCC/C(C)=C/CC/C(C)=C/CN1C(=O)c2cccc(O)c2Nc2c(O)cc(O)cc21 [Formula I, 10-farnesyl-4,6,8-trihydroxy-dibenzodiazepin-11-one] the plasma concentration ([1]; 30 mg/kg bolus IV, initial) was 425000 nM, the peak concentration ([1]; IP bolus, plasma) was 7.8 µM and the “time peak concentration reached” value ([1]; IP bolus, plasma) was 15 min. The tissue distribution ([1]; IV and IP bolus 30 mg/kg, 30 min) was “well distributed”, the “tissue levels compared with IP” value ([1]; SC bolus 30 mg/kg, 30 min) was “significantly lower” and the peak concentration ([1]; SC bolus, plasma) was 2.3 µM. The “time peak concentration reached” value ([1]; SC bolus, plasma) was 60 min, the bioavailability ([1]; female, Crl: CD1, mouse, plasma, PO 30 mg/kg compared to IV bolus administration, read-out: orally bioavailable) was 5 to 8% and the half-life ([1]; female, Crl:CD1, mouse, bolus IV 30 mg/kg, plasma, read-out: t1/2 α) was 4.7 min. It also gave a concentration at 8 h ([1]; female, Crl:CD1, mouse, plasma, 30 mg/kg bolus IV, by 8 hours, read-out: plasma concentration) of ~100 nM, a concentration at 4 h ([1]; female, Crl:CD1, mouse, plasma, 30 mg/kg bolus IV, four hours after administration) of 200 nM and a concentration at 1 h ([1]; female, Crl:CD1, mouse, plasma, 30 mg/kg bolus IV, within one hour) of 1300 nM. The concentration at 8 h ([1]; female, Crl:CD1, mouse, plasma, 30 mg/kg, IP bolus, read-out: plasma concentration remained for up to 8 hours) was ~950 nM, the concentration at 8 h ([1]; female, Crl:CD1, mouse, plasma, 30 mg/kg, SC bolus, read-out: plasma concentration remained for up to 8 hours) was ~1800 nM and the “time plasma concentration is maintained at therapeutically relevant levels” value ([1]; intraperitoneal and subcutaneous 30 mg/kg) was “over 8 hours”. For the same molecule, the “%T/C” value ([2]; bolus SC 30 mg/kg days 1 to 5, 8 to 12 and 15 to 19) was 25.5%, the “%T/C” value ([2]; bolus SC 50 mg/kg every three days x 7) was 14.6% and the antitumor activity ([2]; bolus intravenous treatment (100 mg/kg, 5/2/5/2/5)) was “did not result in activity”. The compound associated toxicity [3] was “no severe compound associated toxicity was observed”, the “degenerative changes in any organs, including the infusion site” value [3] was “No degenerative changes” and the “effect on body weight, ocular condition, electrocardiographic activity and other parameters assessed” value [3] was “no effect”. The “histological observations, reflected clearance of the vehicle used” value [3] was “Diffuse vacuolization of hepatocytes and accumulation of foamy histiocytes (macrophages) in the spleen”, the “side effects (reversible)” value [3] was “inappetance and a moderate degree of regenerative anemia” and the Q ([4]; WT 0.022 Kg) was 0.001 L/h. The V1 ([4]; WT 0.022 Kg) was 0.004 L, the V2 ([4]; WT 0.022 Kg) was 0.005 L and the Ke [4, 5] was 8.466 h⁻¹. For the same molecule, the Q [4, 5] was 1.09 mL/min/kg, the V1 [4, 5] was 0.176 L/kg and the V2 [4, 5] was 0.225 L/kg.

From patent publication EP1733758A1, “Methods for administration of a farnesyl dibenzodiazepinone” (Ecopia Biosciences Inc., priority 2005, dated 2006)
